Data: article PMC3115942 (PLoS ONE, 2011)
“Also recorded” adds a separate entry of the source.

Legend:
[1] = tested on: PANC-1, SUIT-2, PC-3 and FEMX cells; experiment: In vitro antiproliferative assay (MTS), tumor cell lines; assay type: cell-based, human; conditions: 10 µM, 4 day exposure; across PANC-1, SUIT-2, PC-3 and FEMX
Procedure: Cells were plated at a density of 3000 (THLE-2 and PC-3) and 1000 (PANC-1, SUIT-2 and FEMX) cells per well (on the basis of their growth rate) in 200 µl of medium in a 96-well plate. Medium was changed daily, and after four days, the assay was read using a MTS kit (Promega) according to the instructions of the manufacturer. Graphs display average of percent growth with standard deviation (n = 8).

SUIT-2 cells = experiment: Passage growth assay, SUIT-2; assay type: cell-based, human; conditions: 5 µM, passage 2 and 3
Procedure: 20,000 cells were seeded per well in 6 well plates (triplicates) with DMSO or 5 µM MS-0022. Treatment medium was changed on day 3–5, and after 5–7 days the cells were trypsinized, re-suspended in medium and counted, before reseeding cells at 20,000/well for a subsequent passage. The average growth of MS-0022 treated cells was calculated as a percentage of the growth of the DMSO control at the end of each passage. Graphs display average of percent growth with standard deviation bars (n = 3).

[2] = tested on: TNF-α induced NfkB signaling in NIH3T3 cells; experiment: NFkB luciferase reporter assay in NIH3T3; assay type: cell-based; conditions: NIH3T3, 10 µM and 20 µM, 24 hours
Procedure: Vectors were obtained from the following: GliBS-Luc reporter (gift from H. Sasaki), pBluescript (pBS) (Stratagene), FL-HA-GLI1 (Gli1) and Gli2-GFP (Gli2) (gifts from R. Toftgård), Super8XTOPFlash, and NFkB-luc (Panomics). 10 ng renilla luciferase (pRL-TK) (Promega) was used as a transfection control. HEK293 and NIH3T3 cells were seeded at 80,000 per well in 48-well plates on day 1, and were co-transfected on day 2 using a total of 0.4 µg plasmid per well mixed at 1∶3 in FUGENE6 according to manufacturer^'s instructions. On day 3, control medium and activating medium (50% L1 conditioned medium, 50% Shh conditioned medium or medium containing 10 ng/mL recombinant rcrTNF-α (R&D Systems)) +/− 10–20 µM MS-0022 were added, using DMSO as a control (the NFkB pathway inhibitor Bay11-7082 was used as a control in the NFkB assay). Samples were analyzed on day 4 or 5 using the Dual Luciferase assay kit according to manufacturer^'s instructions. Graphs display relative or fold reporter activity, and are calculated from a mean ratio of firefly reporter luminescence/pRL-TK luminescence with standard deviation error bars (n = 3). The experiments have been repeated with similar results.

ALK(h) = molecular target: T1, ALK(h) (Homo sapiens, UniProt Q9UM73); experiment: Millipore kinaseprofiler diversity array; assay type: biochemical; conditions: 10 µM MS-0022
T1 construct: purchased Millipore (Upstate) KinaseProfiler
Procedure: (§1) Table 4 Kinase activity in presence of 10 µM MS-0022 in a kinaseprofiler diversity array. | column: Activity %

CDK2/cyclinA(h) = molecular target: T2, CDK2/cyclinA(h) (Homo sapiens, UniProt P24941); experiment: Millipore kinaseprofiler diversity array; assay type: biochemical; conditions: 10 µM MS-0022
T2 construct: purchased Millipore (Upstate) KinaseProfiler
Procedure: as §1

CDK7/cyclinH/MAT1(h) = molecular target: T3, CDK7/cyclinH/MAT1(h) (Homo sapiens, UniProt P50613); experiment: Millipore kinaseprofiler diversity array; assay type: biochemical; conditions: 10 µM MS-0022
T3 construct: purchased Millipore (Upstate) KinaseProfiler
Procedure: as §1

CK2α2(h) = molecular target: T4, CK2α2(h) (Homo sapiens, UniProt P19784); experiment: Millipore kinaseprofiler diversity array; assay type: biochemical; conditions: 10 µM MS-0022
T4 construct: purchased Millipore (Upstate) KinaseProfiler
T4 sequence (P19784 whole entry): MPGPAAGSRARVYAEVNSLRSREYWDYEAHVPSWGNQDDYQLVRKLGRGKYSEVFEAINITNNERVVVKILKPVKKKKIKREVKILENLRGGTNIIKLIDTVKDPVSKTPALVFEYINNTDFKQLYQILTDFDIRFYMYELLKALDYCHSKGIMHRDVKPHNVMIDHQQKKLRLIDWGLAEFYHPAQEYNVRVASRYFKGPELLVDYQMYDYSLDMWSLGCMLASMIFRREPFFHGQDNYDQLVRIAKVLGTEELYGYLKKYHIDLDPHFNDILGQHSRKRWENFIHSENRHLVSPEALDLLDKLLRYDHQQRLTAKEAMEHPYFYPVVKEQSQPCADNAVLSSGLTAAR
Procedure: as §1

CaMKI(h) = molecular target: T5, CaMKI(h) (Homo sapiens, UniProt Q14012); experiment: Millipore kinaseprofiler diversity array; assay type: biochemical; conditions: 10 µM MS-0022
T5 construct: purchased Millipore (Upstate) KinaseProfiler
Procedure: as §1

DYRK2(h) = molecular target: T6, DYRK2(h) (Homo sapiens, UniProt Q92630); experiment: Millipore kinaseprofiler diversity array; assay type: biochemical; conditions: 10 µM MS-0022
T6 construct: purchased Millipore (Upstate) KinaseProfiler
Procedure: as §1

EGFR(h) = molecular target: T7, EGFR(h) (Homo sapiens, UniProt P00533); experiment: Millipore kinaseprofiler diversity array; assay type: biochemical; conditions: 10 µM MS-0022
T7 construct: purchased Millipore (Upstate) KinaseProfiler
Procedure: as §1

GRK5(h) = molecular target: T8, GRK5(h) (Homo sapiens, UniProt P34947); experiment: Millipore kinaseprofiler diversity array; assay type: biochemical; conditions: 10 µM MS-0022
T8 construct: purchased Millipore (Upstate) KinaseProfiler
Procedure: as §1

IRAK4(h) = molecular target: T9, IRAK4(h) (Homo sapiens, UniProt Q9NWZ3); experiment: Millipore kinaseprofiler diversity array; assay type: biochemical; conditions: 10 µM MS-0022
T9 construct: purchased Millipore (Upstate) KinaseProfiler
T9 sequence (Q9NWZ3 whole entry): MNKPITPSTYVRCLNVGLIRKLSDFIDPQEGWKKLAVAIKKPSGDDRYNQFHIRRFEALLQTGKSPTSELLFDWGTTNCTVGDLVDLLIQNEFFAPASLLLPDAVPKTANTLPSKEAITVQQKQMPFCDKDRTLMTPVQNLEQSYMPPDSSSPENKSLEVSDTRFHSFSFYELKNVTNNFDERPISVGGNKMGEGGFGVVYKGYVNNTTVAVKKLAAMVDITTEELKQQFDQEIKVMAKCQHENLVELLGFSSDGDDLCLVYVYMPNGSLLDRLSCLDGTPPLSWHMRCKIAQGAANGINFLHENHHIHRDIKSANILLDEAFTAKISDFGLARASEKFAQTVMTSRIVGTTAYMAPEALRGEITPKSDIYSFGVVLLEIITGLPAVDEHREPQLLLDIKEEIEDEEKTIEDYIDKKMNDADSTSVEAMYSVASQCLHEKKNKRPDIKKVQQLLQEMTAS
Procedure: as §1

JAK2(h) = molecular target: T10, JAK2(h) (Homo sapiens, UniProt O60674); experiment: Millipore kinaseprofiler diversity array; assay type: biochemical; conditions: 10 µM MS-0022
T10 construct: purchased Millipore (Upstate) KinaseProfiler
Procedure: as §1

Lyn(h) = molecular target: T11, Lyn(h) (Homo sapiens, UniProt P07948); experiment: Millipore kinaseprofiler diversity array; assay type: biochemical; conditions: 10 µM MS-0022
T11 construct: purchased Millipore (Upstate) KinaseProfiler
T11 sequence (P07948 whole entry): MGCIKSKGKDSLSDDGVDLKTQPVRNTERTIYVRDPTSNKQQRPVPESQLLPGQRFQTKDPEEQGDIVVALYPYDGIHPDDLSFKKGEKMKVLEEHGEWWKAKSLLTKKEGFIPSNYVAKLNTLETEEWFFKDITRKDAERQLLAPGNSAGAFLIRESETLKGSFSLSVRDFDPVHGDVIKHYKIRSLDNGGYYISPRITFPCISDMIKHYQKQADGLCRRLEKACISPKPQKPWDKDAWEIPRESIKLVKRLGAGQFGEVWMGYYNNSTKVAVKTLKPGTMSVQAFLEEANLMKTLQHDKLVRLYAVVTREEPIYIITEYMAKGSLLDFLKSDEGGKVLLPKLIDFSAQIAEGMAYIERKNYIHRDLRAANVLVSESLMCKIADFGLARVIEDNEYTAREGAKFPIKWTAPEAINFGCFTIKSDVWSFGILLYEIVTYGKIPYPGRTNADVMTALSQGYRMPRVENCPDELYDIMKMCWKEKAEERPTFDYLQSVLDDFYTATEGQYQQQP
Procedure: as §1

MAPK2(h) = molecular target: T12, MAPK2(h) (Homo sapiens, UniProt P28482); experiment: Millipore kinaseprofiler diversity array; assay type: biochemical; conditions: 10 µM MS-0022
T12 construct: purchased Millipore (Upstate) KinaseProfiler
T12 sequence (P28482 whole entry): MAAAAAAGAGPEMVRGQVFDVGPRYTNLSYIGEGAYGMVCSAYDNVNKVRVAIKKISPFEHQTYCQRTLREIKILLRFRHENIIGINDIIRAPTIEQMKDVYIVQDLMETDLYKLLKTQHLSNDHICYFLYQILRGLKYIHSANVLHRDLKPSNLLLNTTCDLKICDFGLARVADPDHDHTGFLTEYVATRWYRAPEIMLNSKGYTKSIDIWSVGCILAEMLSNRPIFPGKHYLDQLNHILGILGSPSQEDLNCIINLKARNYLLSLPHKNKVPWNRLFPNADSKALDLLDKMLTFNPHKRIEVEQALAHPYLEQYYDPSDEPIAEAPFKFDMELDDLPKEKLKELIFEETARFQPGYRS
Procedure: as §1

MKK7β(h) = molecular target: T13, MKK7β(h) (Homo sapiens, UniProt O14733); experiment: Millipore kinaseprofiler diversity array; assay type: biochemical; conditions: 10 µM MS-0022
T13 construct: purchased Millipore (Upstate) KinaseProfiler
T13 sequence (O14733 whole entry): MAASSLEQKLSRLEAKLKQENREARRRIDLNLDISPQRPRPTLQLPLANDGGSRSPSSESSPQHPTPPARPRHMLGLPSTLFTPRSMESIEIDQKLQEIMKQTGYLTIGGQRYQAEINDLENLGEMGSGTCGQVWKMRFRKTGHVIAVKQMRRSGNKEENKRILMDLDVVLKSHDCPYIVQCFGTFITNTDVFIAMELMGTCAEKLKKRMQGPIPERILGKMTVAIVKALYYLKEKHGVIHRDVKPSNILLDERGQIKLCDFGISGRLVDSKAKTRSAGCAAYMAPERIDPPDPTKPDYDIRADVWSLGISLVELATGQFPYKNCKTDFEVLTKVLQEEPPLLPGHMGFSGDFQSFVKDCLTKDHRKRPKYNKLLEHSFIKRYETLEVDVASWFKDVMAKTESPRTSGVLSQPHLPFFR
Procedure: as §1

MSK2(h) = molecular target: T14, MSK2(h) (Homo sapiens, UniProt O75676); experiment: Millipore kinaseprofiler diversity array; assay type: biochemical; conditions: 10 µM MS-0022
T14 construct: purchased Millipore (Upstate) KinaseProfiler
Procedure: as §1

PDGFRβ(h) = molecular target: T15, PDGFRβ(h) (Homo sapiens, UniProt P09619); experiment: Millipore kinaseprofiler diversity array; assay type: biochemical; conditions: 10 µM MS-0022
T15 construct: purchased Millipore (Upstate) KinaseProfiler
Procedure: as §1

PKCα(h) = molecular target: T16, PKCα(h) (Homo sapiens, UniProt P17252); experiment: Millipore kinaseprofiler diversity array; assay type: biochemical; conditions: 10 µM MS-0022
T16 construct: purchased Millipore (Upstate) KinaseProfiler
Procedure: as §1

PKCθ(h) = molecular target: T17, PKCθ(h) (Homo sapiens, UniProt Q04759); experiment: Millipore kinaseprofiler diversity array; assay type: biochemical; conditions: 10 µM MS-0022
T17 construct: purchased Millipore (Upstate) KinaseProfiler
Procedure: as §1

PKG1α(h) = molecular target: T18, PKG1α(h) (Homo sapiens, UniProt Q13976); experiment: Millipore kinaseprofiler diversity array; assay type: biochemical; conditions: 10 µM MS-0022
T18 construct: purchased Millipore (Upstate) KinaseProfiler
Procedure: as §1

Plk3(h) = molecular target: T19, Plk3(h) (Homo sapiens, UniProt Q9H4B4); experiment: Millipore kinaseprofiler diversity array; assay type: biochemical; conditions: 10 µM MS-0022
T19 construct: purchased Millipore (Upstate) KinaseProfiler
T19 sequence (Q9H4B4 whole entry): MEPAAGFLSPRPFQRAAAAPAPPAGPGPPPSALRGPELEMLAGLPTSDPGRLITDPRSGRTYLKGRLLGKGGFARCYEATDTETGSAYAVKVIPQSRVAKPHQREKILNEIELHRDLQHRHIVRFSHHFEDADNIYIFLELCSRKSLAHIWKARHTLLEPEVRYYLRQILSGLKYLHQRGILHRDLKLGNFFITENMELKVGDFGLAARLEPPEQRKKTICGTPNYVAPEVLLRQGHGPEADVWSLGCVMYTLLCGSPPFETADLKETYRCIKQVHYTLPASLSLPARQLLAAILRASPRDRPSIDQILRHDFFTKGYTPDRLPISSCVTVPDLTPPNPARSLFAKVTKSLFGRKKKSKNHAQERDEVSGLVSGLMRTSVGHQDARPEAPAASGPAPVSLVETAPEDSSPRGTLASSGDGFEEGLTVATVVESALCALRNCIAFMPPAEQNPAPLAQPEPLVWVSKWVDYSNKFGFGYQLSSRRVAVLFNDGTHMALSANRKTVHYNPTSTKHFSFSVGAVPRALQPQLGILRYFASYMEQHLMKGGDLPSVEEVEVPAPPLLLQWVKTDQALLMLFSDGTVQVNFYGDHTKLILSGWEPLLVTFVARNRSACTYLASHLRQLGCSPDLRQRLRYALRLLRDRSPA
Procedure: as §1

Rse(h) = molecular target: T20, Rse(h) (Homo sapiens, UniProt Q06418); experiment: Millipore kinaseprofiler diversity array; assay type: biochemical; conditions: 10 µM MS-0022
T20 construct: purchased Millipore (Upstate) KinaseProfiler
Procedure: as §1

SRPK1(h) = molecular target: T21, SRPK1(h) (Homo sapiens, UniProt Q96SB4); experiment: Millipore kinaseprofiler diversity array; assay type: biochemical; conditions: 10 µM MS-0022
T21 construct: purchased Millipore (Upstate) KinaseProfiler
T21 sequence (Q96SB4 whole entry): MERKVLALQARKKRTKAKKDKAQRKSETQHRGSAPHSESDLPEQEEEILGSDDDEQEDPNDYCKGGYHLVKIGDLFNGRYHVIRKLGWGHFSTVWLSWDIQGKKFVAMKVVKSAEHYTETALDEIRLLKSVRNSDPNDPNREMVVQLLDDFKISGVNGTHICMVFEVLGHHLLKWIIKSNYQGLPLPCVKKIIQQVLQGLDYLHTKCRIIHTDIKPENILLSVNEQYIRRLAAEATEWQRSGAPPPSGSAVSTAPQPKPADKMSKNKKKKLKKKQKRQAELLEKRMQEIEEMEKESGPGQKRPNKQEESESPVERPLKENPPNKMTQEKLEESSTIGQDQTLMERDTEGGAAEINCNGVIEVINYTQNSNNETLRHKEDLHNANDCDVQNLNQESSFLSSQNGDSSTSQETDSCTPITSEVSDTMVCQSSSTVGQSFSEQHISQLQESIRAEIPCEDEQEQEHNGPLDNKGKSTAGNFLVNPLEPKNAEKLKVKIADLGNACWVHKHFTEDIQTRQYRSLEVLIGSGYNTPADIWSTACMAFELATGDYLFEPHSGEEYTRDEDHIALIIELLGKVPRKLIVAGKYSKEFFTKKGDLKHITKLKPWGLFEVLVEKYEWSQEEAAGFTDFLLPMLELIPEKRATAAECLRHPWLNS
Procedure: as §1

c-RAF(h) = molecular target: T22, c-RAF(h) (Homo sapiens, UniProt P04049); experiment: Millipore kinaseprofiler diversity array; assay type: biochemical; conditions: 10 µM MS-0022
T22 construct: purchased Millipore (Upstate) KinaseProfiler
T22 sequence (P04049 whole entry): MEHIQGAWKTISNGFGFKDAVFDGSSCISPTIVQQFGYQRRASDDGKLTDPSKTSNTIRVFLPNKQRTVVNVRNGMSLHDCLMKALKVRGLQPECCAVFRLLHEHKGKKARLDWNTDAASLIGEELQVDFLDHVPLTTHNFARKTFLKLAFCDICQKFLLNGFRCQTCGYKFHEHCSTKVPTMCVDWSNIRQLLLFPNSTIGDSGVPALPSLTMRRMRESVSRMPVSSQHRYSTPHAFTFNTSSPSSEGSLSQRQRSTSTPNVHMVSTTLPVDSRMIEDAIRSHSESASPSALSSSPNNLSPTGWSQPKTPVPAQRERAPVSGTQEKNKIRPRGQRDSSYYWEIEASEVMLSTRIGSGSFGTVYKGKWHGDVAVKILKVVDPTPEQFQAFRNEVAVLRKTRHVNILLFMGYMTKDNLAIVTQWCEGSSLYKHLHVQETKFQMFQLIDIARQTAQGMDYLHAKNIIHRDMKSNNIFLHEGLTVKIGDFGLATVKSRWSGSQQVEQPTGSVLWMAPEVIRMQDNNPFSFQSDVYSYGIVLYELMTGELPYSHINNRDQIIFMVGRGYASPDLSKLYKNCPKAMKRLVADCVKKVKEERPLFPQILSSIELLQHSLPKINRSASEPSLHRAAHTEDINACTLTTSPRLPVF
Procedure: as §1

cSRC(h) = molecular target: T23, cSRC(h) (Homo sapiens, UniProt P12931); experiment: Millipore kinaseprofiler diversity array; assay type: biochemical; conditions: 10 µM MS-0022
T23 construct: purchased Millipore (Upstate) KinaseProfiler
Procedure: as §1

eEF-2K(h) = molecular target: T24, eEF-2K(h) (Homo sapiens, UniProt O00418); experiment: Millipore kinaseprofiler diversity array; assay type: biochemical; conditions: 10 µM MS-0022
T24 construct: purchased Millipore (Upstate) KinaseProfiler
Procedure: as §1

Which “growth reduction (MTS)” value [1] does the source give for `Cc1cccn2cc(-c3ccc(NC(=O)c4ccccc4Br)cc3)nc12` [MS-0022, 2-bromo-N-(4-(8-methylimidazo[1,2-a]pyridin-2-yl)phenyl)benzamide] here?
Its value is 40%–70%.

And the “serial passage growth reduction, SUIT-2” value (SUIT-2 cells)?
Its value is “not significant”.

And the “TNF-α induced NfkB signaling” value [2]?
Its value is “nor did it block; also recorded: slight increase of NFkB signaling”.

And the activity at 10 µM (ALK(h))?
Its activity at 10 µM is 95%.

What about the activity at 10 µM (CDK2/cyclinA(h)) of the same compound?
Its activity at 10 µM is 98%.

What about the activity at 10 µM (CDK7/cyclinH/MAT1(h)) of the same compound?
Its activity at 10 µM is 103%.

And the activity at 10 µM (CK2α2(h))?
Its activity at 10 µM is 109%.

And the activity at 10 µM (CaMKI(h))?
Its activity at 10 µM is 106%.

And the activity at 10 µM (DYRK2(h))?
Its activity at 10 µM is 97%.

And the activity at 10 µM (EGFR(h))?
Its activity at 10 µM is 84%.

What about the activity at 10 µM (GRK5(h)) of the same compound?
The activity at 10 µM was 119%.

What about the activity at 10 µM (IRAK4(h)) of the same compound?
Its activity at 10 µM is 95%.

What about the activity at 10 µM (JAK2(h)) of the same compound?
Its activity at 10 µM is 110%.

What about the activity at 10 µM (Lyn(h)) of the same compound?
Its activity at 10 µM is 103%.

And the activity at 10 µM (MAPK2(h))?
Its activity at 10 µM is 101%.

What about the activity at 10 µM (MKK7β(h)) of the same compound?
The activity at 10 µM was 109%.

And the activity at 10 µM (MSK2(h))?
Its activity at 10 µM is 92%.

What about the activity at 10 µM (PDGFRβ(h)) of the same compound?
Its activity at 10 µM is 108%.

And the activity at 10 µM (PKCα(h))?
Its activity at 10 µM is 106%.

What about the activity at 10 µM (PKCθ(h)) of the same compound?
The activity at 10 µM was 103%.

And the activity at 10 µM (PKG1α(h))?
Its activity at 10 µM is 94%.

What about the activity at 10 µM (Plk3(h)) of the same compound?
The activity at 10 µM was 107%.

What about the activity at 10 µM (Rse(h)) of the same compound?
The activity at 10 µM was 107%.

And the activity at 10 µM (SRPK1(h))?
The activity at 10 µM was 102%.

And the activity at 10 µM (c-RAF(h))?
Its activity at 10 µM is 106%.

What about the activity at 10 µM (cSRC(h)) of the same compound?
Its activity at 10 µM is 83%.

And the activity at 10 µM (eEF-2K(h))?
Its activity at 10 µM is 99%.
